Measured values reported in patent publication US8895585B2, “Nicotinamide derivative or salt thereof” (FUJIFILM Corporation, priority 2010, dated 2014).

Target: T1, glutathione S-transferase (GST)-fused full-length human Syk protein (Homo sapiens, UniProt P43405)
T1 construct: (GST)-fused full-length human Syk protein; GST (glutathione S-transferase); purchased Carna Biosciences
Experiment: Syk enzyme assay
Format: biochemical
Details: Syk enzyme assay, Test Example 1; read-out: IC50 of Syk-inhibitory activity
How it was run: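 GST-tagged full-length human Syk (baculovirus) preincubated with compound 15 min at room temperature (pH 7.0, 10 mM MgCl2), then reacted 40 min with 0.4 μM biotinylated peptide substrate and 27 μM ATP (final). Phosphorylation read by HTRF (615/665 nm) after EDTA stop; IC50 reported.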

SMILES | IC50 [nM]
NC(=O)c1cc(F)c(N[C@@H]2CCCC[C@@H]2N)nc1Nc1cnc2c(NS(=O)(=O)c3ccc(Cl)cc3)cccc2c1 (relative stereo) [Example 41-6, 6-(cis-2-aminocyclohexylamino)-2-((8-(4-chlorophenylsulphonamide)quinolin-3-yl)amino)-5-fluoronicotinamide] | 50 to 100
NC(=O)c1cc(F)c(N[C@@H]2CCCC[C@@H]2N)nc1Nc1cnc2c(NS(=O)(=O)c3cccnc3)cccc2c1 (relative stereo) [Example 41-8, 6-(cis-2-aminocyclohexylamino)-5-fluoro-2-((8-(pyridin-3-sulphonamide)quinolin-3-yl)amino)nicotinamide] | 10 to 50
NC(=O)c1cc(F)c(N[C@@H]2CCCC[C@@H]2N)nc1Nc1cnc2c(NC(=O)c3ccccn3)cccc2c1 (relative stereo) [Example 41-10, 6-(cis-2-aminocyclohexylamino)-5-fluoro-2-((8-picolinamidequinolin-3-yl)amino)nicotinamide] | < 10
CC(C)(C)C(=O)Nc1cccc2cc(Nc3nc(N[C@@H]4CCCC[C@@H]4N)c(F)cc3C(N)=O)cnc12 (relative stereo) [Example 41-11, 6-(cis-2-aminocyclohexylamino)-5-fluoro-2-((8-pivalamidequinolin-3-yl)amino)nicotinamide] | < 10
NC(=O)c1cc(F)c(N[C@@H]2CCCC[C@@H]2N)nc1Nc1cc(O)c2ncccc2c1 (relative stereo) [Example 042-000] | < 10
COc1cccc(Nc2nc(NC3CCCCC3N)c(F)cc2C(N)=O)c1 (stereo not shown) [Example 002-006] | < 10
CN1CCN(c2ccc(Nc3nc(NC4CCCCC4N)c(F)cc3C(N)=O)cn2)CC1 (stereo not shown) [Example 002-021] | 10 to 50
Cc1cc(Nc2nc(NC3CCCCC3N)c(F)cc2C(N)=O)cc(C)n1 (stereo not shown) [Example 002-022] | 10 to 50
Cc1ncc(Nc2nc(NC3CCCCC3N)c(F)cc2C(N)=O)cc1-c1ccccc1 (stereo not shown) [Example 002-023] | < 10
NC(=O)c1cc(F)c(NC2CCCCC2N)nc1Nc1cccc2c1cnn2CCN1CCCC1 (stereo not shown) [Example 002-026] | < 10
NC(=O)c1cc(F)c(NC2CCCCC2N)nc1Nc1cccc2c1cnn2CCN1CCOCC1 (stereo not shown) [Example 002-027] | < 10
NC(=O)c1cc(F)c(NC2CCCCC2N)nc1Nc1cccc2c1cnn2CC1CC1 (stereo not shown) [Example 002-028] | < 10
NC(=O)c1cc(F)c(NC2CCCCC2N)nc1Nc1cccc2c1cnn2Cc1ccccc1 (stereo not shown) [Example 002-029] | 10 to 50
CCOCCOCCn1ncc2c(Nc3nc(NC4CCCCC4N)c(F)cc3C(N)=O)cccc21 (stereo not shown) [Example 002-031] | < 10
NC(=O)c1cc(F)c(NC2CCCCC2N)nc1Nc1cccc2nn(Cc3ccccc3)cc12 (stereo not shown) [Example 002-033] | < 10
COCCn1cc2c(Nc3nc(NC4CCCCC4N)c(F)cc3C(N)=O)cccc2n1 (stereo not shown) [Example 002-034] | < 10
CCOCCOCCn1cc2c(Nc3nc(NC4CCCCC4N)c(F)cc3C(N)=O)cccc2n1 (stereo not shown) [Example 002-035] | 10 to 50
NC(=O)c1cc(F)c(NC2CCCCC2N)nc1Nc1ccc2c(cnn2Cc2ccccc2)c1 (stereo not shown) [Example 002-036] | 50 to 100
CC(C)c1cncc(Nc2nc(NC3CCCCC3N)c(F)cc2C(N)=O)c1 (stereo not shown) [Example 002-039] | 10 to 50
Cc1ncc(Nc2nc(NC3CCCCC3N)c(F)cc2C(N)=O)cc1N1CCCC1 (stereo not shown) [Example 002-040] | 10 to 50
COCCn1cc2ccc(Nc3nc(NC4CCCCC4N)c(F)cc3C(N)=O)cc2n1 (stereo not shown) [Example 002-044] | 10 to 50
CCOCCOCCn1cc2ccc(Nc3nc(NC4CCCCC4N)c(F)cc3C(N)=O)cc2n1 (stereo not shown) [Example 002-045] | 10 to 50
NC(=O)c1cc(F)c(NC2CCCCC2N)nc1Nc1ccc2cnn(CC3CC3)c2c1 (stereo not shown) [Example 002-046] | < 10
NC(=O)c1cc(F)c(NC2CCCCC2N)nc1Nc1ccc2cnn(Cc3ccccc3)c2c1 (stereo not shown) [Example 002-047] | 10 to 50
CCOCCOCCn1ncc2ccc(Nc3nc(NC4CCCCC4N)c(F)cc3C(N)=O)cc21 (stereo not shown) [Example 002-049] | 10 to 50
NC(=O)c1cc(F)c(NC2CCCCC2N)nc1Nc1ccnc(C(F)(F)F)c1 (stereo not shown) [Example 002-050] | 10 to 50

SMILES | IC50 [nM]
NC(=O)c1cc(F)c(NC2CCCCC2N)nc1Nc1ccnc(-c2ccc[nH]2)c1 (stereo not shown) [Example 002-051] | < 10
NC(=O)c1cc(F)c(NC2CCCCC2N)nc1Nc1ccnc(-c2ccccc2)c1 (stereo not shown) [Example 002-052] | < 10
CCOc1cc(Nc2nc(NC3CCCCC3N)c(F)cc2C(N)=O)cc(OCC)n1 (stereo not shown) [Example 002-061] | < 10
Cc1ccc(-c2cncc(Nc3nc(NC4CCCCC4N)c(F)cc3C(N)=O)c2)o1 (stereo not shown) [Example 002-062] | < 10
Cc1ccc(-c2cc(Nc3nc(NC4CCCCC4N)c(F)cc3C(N)=O)ccn2)o1 (stereo not shown) [Example 002-063] | < 10
NC(=O)c1cc(F)c(NC2CCCCC2N)nc1Nc1cccn2ccnc12 (stereo not shown) [Example 002-064] | 100 to 1000
NC(=O)c1cc(F)c(NC2CCCCC2N)nc1Nc1cncc(-c2cn[nH]c2)c1 (stereo not shown) [Example 002-069] | < 10
NC(=O)c1cc(F)c(NC2CCCCC2N)nc1Nc1ccnc(-c2cn[nH]c2)c1 (stereo not shown) [Example 002-070] | < 10
Cc1cc(Nc2nc(NC3CCCCC3N)c(F)cc2C(N)=O)cnc1N1CCOCC1 (stereo not shown) [Example 002-071] | 10 to 50
NC(=O)c1cc(F)c(NC2CCCCC2N)nc1Nc1cnc(N2CCOCC2)c(-c2ccoc2)c1 (stereo not shown) [Example 002-072] | 10 to 50
CN(C)c1ccc(Nc2nc(NC3CCCCC3N)c(F)cc2C(N)=O)cn1 (stereo not shown) [Example 002-074] | 50 to 100
NC(=O)c1cc(F)c(NC2CCCCC2N)nc1Nc1ccc(NCCO)nc1 (stereo not shown) [Example 002-075] | 10 to 50
COCCNc1ccc(Nc2nc(NC3CCCCC3N)c(F)cc2C(N)=O)cn1 (stereo not shown) [Example 002-076] | 50 to 100
NC(=O)c1cc(F)c(NC2CCCCC2N)nc1Nc1ccc(N2CCCC2)nc1 (stereo not shown) [Example 002-078] | 10 to 50
NC(=O)c1cc(F)c(NC2CCCCC2N)nc1Nc1ccc(OCCO)nc1 (stereo not shown) [Example 002-079] | 50 to 100
NC(=O)c1cc(F)c(NC2CCCCC2N)nc1Nc1ccc(NCCCN2CCOCC2)nc1 (stereo not shown) [Example 002-081] | 10 to 50
CCCOc1cc(Nc2nc(NC3CCCCC3N)c(F)cc2C(N)=O)ccn1 (stereo not shown) [Example 002-082] | < 10
CC(C)COc1cc(Nc2nc(NC3CCCCC3N)c(F)cc2C(N)=O)ccn1 (stereo not shown) [Example 002-084] | < 10
COC(C)CCOc1cc(Nc2nc(NC3CCCCC3N)c(F)cc2C(N)=O)ccn1 (stereo not shown) [Example 002-085] | 10 to 50
NC(=O)c1cc(F)c(NC2CCCCC2N)nc1Nc1ccnc(OCc2ccccc2)c1 (stereo not shown) [Example 002-086] | 10 to 50
NC(=O)c1cc(F)c(NC2CCCCC2N)nc1Nc1ccc2cc(Cl)cnc2c1 (stereo not shown) [Example 002-087] | 10 to 50
COc1ccc2ccc(Nc3nc(NC4CCCCC4N)c(F)cc3C(N)=O)cc2n1 (stereo not shown) [Example 002-088] | < 10
COc1ccnc2cc(Nc3nc(NC4CCCCC4N)c(F)cc3C(N)=O)ccc12 (stereo not shown) [Example 002-089] | 10 to 50
COCCOc1ccc2ccc(Nc3nc(NC4CCCCC4N)c(F)cc3C(N)=O)cc2n1 (stereo not shown) [Example 002-090] | < 10
COCC(C)Oc1ccc2ccc(Nc3nc(NC4CCCCC4N)c(F)cc3C(N)=O)cc2n1 (stereo not shown) [Example 002-091] | < 10
COC(C)CCOc1ccc2ccc(Nc3nc(NC4CCCCC4N)c(F)cc3C(N)=O)cc2n1 (stereo not shown) [Example 002-092] | < 10
